Laboratory results reported in US20260083864A1, “CONTRAST AGENTS FOR USE IN DIAGNOSTIC COMPUTED TOMOGRAPHY IMAGING” (Bayer Aktiengesellschaft, priority 2022, published 2026).

Legend:
OATP1B3 = biological target: T1, OATP1B3 (Homo sapiens, UniProt Q9NPD5); test: Uptake into stable transfected OATP1B3 HEK 293 cells; type: cell-based; conditions: for Uptake into OATP1B3-HEK 293 cells: 40 min incubation, relative to RC1 (Gd-EOB-DTPA); for Inhibition Rifampicine: uptake into OATP1B3-HEK 293 cells
T1 sequence (Q9NPD5 1-702): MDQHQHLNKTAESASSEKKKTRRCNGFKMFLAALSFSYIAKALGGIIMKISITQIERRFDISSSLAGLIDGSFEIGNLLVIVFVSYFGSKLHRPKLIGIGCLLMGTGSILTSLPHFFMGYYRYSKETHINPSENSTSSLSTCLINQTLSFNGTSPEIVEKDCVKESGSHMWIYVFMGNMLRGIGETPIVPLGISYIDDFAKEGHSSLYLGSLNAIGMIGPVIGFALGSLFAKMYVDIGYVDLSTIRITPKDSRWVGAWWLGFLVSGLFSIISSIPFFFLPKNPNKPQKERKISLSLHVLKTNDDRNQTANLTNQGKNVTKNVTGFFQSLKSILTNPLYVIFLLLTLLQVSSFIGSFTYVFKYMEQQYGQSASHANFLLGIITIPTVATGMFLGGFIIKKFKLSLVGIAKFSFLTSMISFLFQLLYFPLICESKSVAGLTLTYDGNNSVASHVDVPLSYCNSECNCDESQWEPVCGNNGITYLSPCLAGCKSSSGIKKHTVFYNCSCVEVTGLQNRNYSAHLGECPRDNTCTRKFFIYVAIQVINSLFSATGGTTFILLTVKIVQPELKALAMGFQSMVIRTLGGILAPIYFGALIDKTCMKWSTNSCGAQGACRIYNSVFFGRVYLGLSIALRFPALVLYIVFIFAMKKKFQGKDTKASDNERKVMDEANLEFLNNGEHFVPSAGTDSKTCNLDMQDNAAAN
In short: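 HEK 293 cells stably transfected with human OATP1B3 were incubated for 40 min with test items at 100 μM final in transport buffer, in triplicate, then washed with cold PBS. Gadoxetate (Gd-EOB-DTPA) served as the reference standard on the same plate.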

plasma proteins = test: Plasma protein binding, equilibrium dialysis, dog; type: in vitro ADME
Excerpt: The binding of Example 1 and 15 to plasma proteins of different species (human, dog, monkey, rabbit, mouse and rat) was investigated in vitro by using equilibrium dialysis in reusable 96-well Micro-Equilibrium Dialysis Devices (ht dialysis) (Banker M J et al. J Pharm Sci. 2003 May; 92 (5): 967-74).

[1] = tested on: cryopreserved rat hepatocytes; test: In vitro metabolism in cryopreserved rat hepatocytes; type: in vitro ADME; conditions: 5 μM, incubation time of 4 h, LC-MS
Method: The in vitro metabolism was investigated in cryopreserved human and rat hepatocytes (Li A P et al. Biomark Med. 2014; 8 (2): 173-83). Cryopreserved human (WSS) and rat hepatocytes (Wistar rat, RWH137, male) were incubated with the test compound (incubation concentration: 5 μM). The amount of remaining compound was related to the initial amount (0 mins). The cells were removed from the liquid nitrogen. The vial was immersed in the 37° C. water bath and shaken gently (by hand) until most of the ice was melted (approx. 90 sec.). The cell suspensions were transferred e.g. into a 50 ml-centrifuge tube and 12 ml of 4° C.-cold buffer (e.g. Krebs-Henseleit or Williams Medium E) were added. The cell suspension was centrifuged at 50×g for 5 mins. The buffer was aspirated, and the cells resuspended in 5 ml of fresh warm buffer. An aliquot of 50 μl was mixed with 200 μl trypan blue to determine the cell density and cell viability. The cell suspension was adjusted to a final concentration of 0.8 Mio hepatocytes per mL. The incubations were performed in 96 well plates (1.2 ml volume, negative control without cells). The 0 min samples were stopped immediately by adding 250 μl of ice-cold methanol. All other samples are shaken on an Heidolph®-rotor during incubation in a 37° C. incubator for the indicated period of 4 hours. Aliquots of the samples were used for analysis. All samples were analyzed using LC-MS at 0 h, 1 h, 2 h and 4 h (exemplary LC-MS: Accucore C-18 column, 30° C., 0.35 mL/min flow rate, solvent A: 10 mM Ammonium formate+5% MeCN, pH4 and solvent B: MeCN+0.1% formic acid; […] injection volume, gradient: 90% A, 10% B, 5 min 70% A and 30% B, 8 min 0% A and 100% B).

[2] = Water solubility in aqueous buffer; conditions: aqueous buffer 10 mM Tris-HCl, pH 7.4, 20° C.
Method: The solid compounds were added stepwise to the buffer solution. More substance is added once all the suspended material is dissolved until an equilibrium between undissolved and dissolved substance is reached. The suspension was mixed using a shaker (Heidolph Reax 2000) and treated 5 min in an ultrasound bath (Bandelin, Sonorex Super RK255H).

[3] = Excretion study in rats (5 days) and residual gadolinium organ distribution (7 days); type: in vivo, rat; conditions: 0.1 mmol Gd/kg bw i.v.; for Σ organs and carcass [% Dose]: 7 d post injection
Method: The excretion and organ distribution of Example 1 and 15 were determined in male rats (Han-Wistar, n=3). The compound was administered as a sterile aqueous solution (50 mmol Gd/L) as a bolus in the tail vein of the animals. The dose was 0.1 mmol Gd/kg bw. Urine was collected in the following time periods 0-1 h, 1-3 h, 3-6 h, 6-24 h, 1-2d and 2-5d post injection […] and feces 0-1d, 1-2d and 2-5d post injection. As a control, 3 animals were treated in the same way with RC1. On day 7 the animals were sacrificed, and the following organs were excised: blood, liver, kidney, spleen, heart, lung, brain, muscle, skin, stomach, gut, bone and bone marrow. The remaining carcass was freeze dried and ground to a fine powder. The Gd concentration in the organs and the carcass was determined by ICP-MS (ICP-MS Agilent 7500a, Waldbronn, Germany). The compounds are excreted via dual pathway (liver and kidney). Less than 1% of the administered dose was present in the body 7 days after the injection.

Row | SMILES | Uptake into OATP1B3-HEK 293 cells (OATP1B3) | Inhibition Rifampicine (OATP1B3) [% inhibition] | Fraction unbound fu (plasma proteins) [%] | Metabolites detected [1] | Solubility [2] [mol/L] | Total recovery [% Dose] [3] [%] | Excretion in urine [% Dose] ([3]; 0-1 h post injection) [%] | Excretion in feces [% Dose] ([3]; 0-1 d post injection) [%] | Excretion in urine [% Dose] ([3]; 1-3 h post injection) [%] | Excretion in feces [% Dose] ([3]; 1-2 d post injection) [%] | Excretion in urine [% Dose] ([3]; 1-2 d post injection) [%] | Excretion in feces [% Dose] ([3]; 2-5 d post injection) [%] | Excretion in urine [% Dose] ([3]; 2-5 d post injection) [%] | Excretion in urine [% Dose] ([3]; 3-6 h post injection) [%] | Excretion in urine [% Dose] ([3]; 6-24 h post injection) [%] | Σ organs and carcass [% Dose] [3] [%]
1 | CCOCCOCCOc1ccc(CC(C(=O)O)N2CCN(CC(=O)[O-])CCN(CC(=O)[O-])CCN(CC(=O)[O-])CC2)cc1.[Gd+3] (centres unmarked) [Example 2, gadolinium 2,2′,2″-{10-[1-carboxy-2-{4-[2-(2-ethoxyethoxy)ethoxy]phenyl}ethyl]-1,4,7,10-tetraazacyclododecane-1,4,7-triyl}triacetate] | 56 % of RC1 | 80 | >95 | No metabolites were detected | >0.757 |  |  |  |  |  |  |  |  |  |  | 
2 | CCOc1ccc(CCOCC(C(=O)O)N2CCN(CC(=O)[O-])CCN(CC(=O)[O-])CCN(CC(=O)[O-])CC2)cc1.[Gd+3] (centres unmarked) [Example 1, gadolinium 2,2′,2″-(10-{1-carboxy-2-[2-(4-ethoxyphenyl)ethoxy]ethyl}-1,4,7,10-tetraazacyclododecane-1,4,7-triyl)triacetate] | 24 % of RC1 | 97 | 96 | No metabolites were detected | >0.258 | 98.6 ± 2.1 | 39.8 ± 6.8 | 55.6 ± 5.6 | 40.3 ± 6.8 | 56.9 ± 6.6 | 40.9 ± 7.4 | 57.0 ± 6.6 | 40.9 ± 7.4 | 40.3 ± 6.8 | 40.8 ± 7.4 | 0.65 ± 0.07
3 | CCOc1ccc(CC(CN(CCN(CC(=O)[O-])CC(=O)[O-])CC(=O)[O-])N(CC(=O)[O-])CC(=O)[O-])cc1.[Gd+3].[Na+].[Na+] (centres unmarked) [RC1, gadoxetate disodium, reference compound] | 100 % of RC1 | 99 |  |  | >0.250 | 104.6 ± 2.4 | 23.2 ± 1.6 | 77.5 ± 2.7 | 23.5 ± 1.5 | 80.6 ± 2.9 | 23.7 ± 1.5 | 80.8 ± 2.9 | 23.7 ± 1.5 | 23.6 ± 1.5 | 23.7 ± 1.5 | 0.14 ± 0.08
4 | CCOCCOCCOc1ccc(CCC[C@@H](C(=O)O)N2CCN([C@@H](CO)C(=O)[O-])CCN([C@@H](CO)C(=O)[O-])CCN([C@@H](CO)C(=O)[O-])CC2)cc1.[Gd+3] [Example 15, gadolinium (2S,2′S,2″S)-2,2′,2″-{10-[(1S)-1-carboxy-4-{4-[2-(2-ethoxyethoxy)ethoxy]phenyl}butyl]-1,4,7,10-tetraazacyclododecane-1,4,7-triyl}tris(3-hydroxypropanoate)] |  | 98 | 91 | No metabolites were detected | >0.500 | 97.9 ± 5.4 | 12.6 ± 11.1 | 78.6 ± 6.2 | 17.3 ± 3.4 | 80.0 ± 5.3 | 17.7 ± 3.3 | 80.0 ± 5.3 | 17.7 ± 3.3 | 17.4 ± 3.3 | 17.6 ± 3.3 | 0.11 ± 0.03
